The target of this test is human PAD4 (hPAD4) (Homo sapiens, UniProt Q9UM07). As to the kind of experiment: RFMS human PAD4 functional assay (rapid-fire mass spectrum). It counts as biochemical. The note with it: 5 nM hPAD4 enzyme, 250 μM BAEE, 50 μM Calcium; 30 min preincubation, 90 min reaction at 37° C. In a few lines:
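PAD4 (10 nM) preincubated 30 min with compound (top final 50 μM), then BAEE substrate added in pH 7.5 HEPES buffer with DTT, 50 μM calcium, TPEN; 90 min at 37° C. After TCA quench, citrulline derivatized with phenyl glyoxal (4 mM final, 30 min, 37° C) and quantified by RapidFire MS against internal standard.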

These results are taken from patent publication US12692254B2, “Benzimidazole inhibitors of PAD enzymes” (BRISTOL-MYERS SQUIBB COMPANY, priority 2018, dated 2026).

Sequence of human PAD4 (hPAD4) (Q9UM07 whole entry): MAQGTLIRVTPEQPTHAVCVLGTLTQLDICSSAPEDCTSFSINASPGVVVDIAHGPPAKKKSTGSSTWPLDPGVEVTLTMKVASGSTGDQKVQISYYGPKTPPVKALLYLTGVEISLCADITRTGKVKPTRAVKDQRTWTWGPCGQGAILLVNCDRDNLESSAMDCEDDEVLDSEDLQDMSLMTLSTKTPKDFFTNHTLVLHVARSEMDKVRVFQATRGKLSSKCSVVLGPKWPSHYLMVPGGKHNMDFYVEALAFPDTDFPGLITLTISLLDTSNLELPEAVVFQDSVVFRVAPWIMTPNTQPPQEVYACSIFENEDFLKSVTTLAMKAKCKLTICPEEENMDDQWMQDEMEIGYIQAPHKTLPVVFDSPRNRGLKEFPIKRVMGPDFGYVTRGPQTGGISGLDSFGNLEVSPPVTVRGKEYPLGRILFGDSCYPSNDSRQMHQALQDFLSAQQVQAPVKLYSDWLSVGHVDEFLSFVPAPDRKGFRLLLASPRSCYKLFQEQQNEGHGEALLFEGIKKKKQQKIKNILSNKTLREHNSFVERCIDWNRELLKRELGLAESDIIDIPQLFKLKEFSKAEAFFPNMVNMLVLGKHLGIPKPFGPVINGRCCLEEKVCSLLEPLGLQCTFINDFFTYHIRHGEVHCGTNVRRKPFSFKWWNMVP

Take `COc1cc(C(=O)N2C[C@H]3CC[C@@H]2[C@@H]3N)cc2nc(-c3csc4ccc(Cl)cc34)n(CC3CN(c4ccnc(C)n4)C3)c12` [Example 324, (1R,4R,7R)-2-[2-(5-chloro-1-benzothiophen-3-yl)-7-methoxy-1-{[1-(2-methylpyrimidin-4-yl)azetidin-3-yl]methyl}-1H-1,3-benzodiazole-5-carbonyl]-2-azabicyclo[2.2.1]heptan-7-amine]: the IC50 turned out to be 1880 nM.
Turning to `COc1cc(C(=O)N2CC3CCC2[C@@H]3N)cc2nc(-c3cc4ccccc4n3CC3CC3)n(Cc3cnn(-c4ccc(C)cn4)c3)c12` (stereo partly drawn) [Example 404, (7R)-2-{2-[1-(cyclopropylmethyl)-1H-indol-2-yl]-7-methoxy-1-{[1-(5-methylpyridin-2-yl)-1H-pyrazol-4-yl]methyl)-1H-1,3-benzodiazole-5-carbonyl}-2-azabicyclo[2.2.1]heptan-7-amine], the IC50 is 66 nM.
Take `COc1cc(C(=O)N2CC3CCC2[C@@H]3N)cc2nc(-c3cc4ccc(C(C)O)cc4n3CC3CC3)n(CC3CN(C(=O)c4ccccc4)C3)c12` (stereo partly drawn) [Example 521, l-(2-{5-[(7R)-7-amino-2-azabicyclo[2.2.1]heptane-2-carbonyl]-1-[(1-benzoylazetidin-3-yl)methyl]-7-methoxy-1H-1,3-benzodiazol-2-yl}-1-(cyclopropylmethyl)-1H-indol-6-yl)ethan-1-ol]: the half-maximal inhibitory concentration (IC50) turned out to be 86 nM.
On to `COc1cc(C(=O)N2CC3CCC2[C@@H]3N)cc2nc(-c3cc4cccnc4n3CC3CC3)n(Cc3cnn(-c4cnccn4)c3)c12` (stereo partly drawn) [Example 373, (7R)-2-{2-[1-(cyclopropylmethyl)-1H-pyrrolo[2,3-b]pyridin-2-yl]-7-methoxy-1-{[1-(pyrazin-2-yl)-1H-pyrazol-4-yl]methyl}-1H-1,3-benzodiazole-5-carbonyl}-2-azabicyclo[2.2.1]heptan-7-amine], for which the IC50 was found to be 34 nM.
Then `COc1cc(C(=O)N2C[C@H]3CC[C@@H]2[C@@H]3N)cc2nc(-c3cc4cccnc4n3CC3CC3)n(CC3CN(C(=O)c4ccnc(Cl)c4)C3)c12` [Example 107, (1R,4R,7R)-2-(1-{[1-(2-chloropyridine-4-carbonyl)azetidin-3-yl]methyl}-2-[1-(cyclopropylmethyl)-1H-pyrrolo[2,3-b]pyridin-2-yl]-7-methoxy-1H-1,3-benzodiazole-5-carbonyl)-2-azabicyclo[2.2.1]heptan-7-amine], with 33 nM.
Turning to `COc1cc(C(=O)N2CC3CCC2[C@@H]3N)cc2nc(-c3cc4ccccc4n3CC3CC3)n(CC3CC(=O)N(C)C3)c12` (mixture of isomers) [Example 262, 4-({5-[(1R,4R,7R)-7-amino-2-azabicyclo[2.2.1]heptane-2-carbonyl]-2-[1-(cyclopropylmethy!)-1H-indol-2-yl]-7-methoxy-1H-1,3-benzodiazol-1-yl}methyl)-1-methylpyrrolidin-2-one], the IC50 is 55 nM.
The value for `COc1cc(C(=O)N2C[C@H]3CC[C@@H]2[C@@H]3N)cc2nc(-c3cc4cccnc4n3CC3CC3)n(C3CN(C(=O)c4ccnc(Cl)n4)C3)c12` [Example 94, (1R,4R,7R)-2-{1-[1-(2-chloropyrimidine-4-carbonyl)azetidin-3-yl]-2-[1-(cyclopropylmethyl)-1H-pyrrolo[2,3-b]pyridin-2-yl]-7-methoxy-1H-1,3-benzodiazole-5-carbonyl}-2-azabicyclo[2.2.1]heptan-7-amine] was 34 nM.
Then `COc1cc(C(=O)N2C[C@H]3CC[C@@H]2[C@@H]3N)cc2nc(-c3cc4ccccc4n3CC3CC3)n(CC3CN(c4nccnc4C#N)C3)c12` [Example 64, 3-[3-({5-[(1R,4R,7R)-7-amino-2-azabicyclo[2.2.1]heptane-2-carbonyl]-2-[1-(cyclopropylmethyl)-1H-indol-2-yl]-7-methoxy-1H-1,3-benzodiazol-1-yl}methyl)azetidin-1-yl]pyrazine-2-carbonitrile], with 23 nM; and `COc1cc(C(=O)N2C[C@H]3CC[C@@H]2[C@@H]3N)cc2nc(-c3cc4ccc(Cl)cc4n3CC3CC3)n(CC3CN(c4cncc(C#N)c4)C3)c12` [Example 87, 5-[3-({5-[(1R,4R,7R)-7-amino-2-azabicyclo[2.2.1]heptane-2-carbonyl]-2-[6-chloro-1-(cyclopropylmethyl)-1H-indol-2-yl]-7-methoxy-1H-1,3-benzodiazol-1-yl}methyl)azetidin-1-yl]pyridine-3-carbonitrile], with 2280 nM.
`COc1cc(C(=O)N2C[C@H]3CC[C@@H]2[C@@H]3N)cc2nc(-c3cc4cccnc4n3CC3CC3)n(C3CN(c4ccnc(C#N)n4)C3)c12` [Example 68, 4-(3-{5-[(1R,4R,7R)-7-amino-2-azabicyclo[2.2.1]heptane-2-carbonyl]-2-[1-(cyclopropylmethyl)-1H-pyrrolo[2,3-b]pyridin-2-yl]-7-methoxy-1H-1,3-benzodiazol-1-yl}azetidin-1-yl)pyrimidine-2-carbonitrile]: the IC50 is 124 nM.
The value for `COc1cc(C(=O)N2CC3CCC2[C@@H]3N)cc2nc(-c3cc4ccccc4n3CC3CC3)n(Cc3cnn(-c4ccncc4)c3)c12` (stereo partly shown) [Example 362] was 25 nM; that for `COc1cc(C(=O)N2C[C@H]3CC[C@@H]2[C@@H]3N)cc2nc(-c3cccn3CC3CC3)n(CC3CN(c4ccnc(C)n4)C3)c12` [Example 314, (1R,4R,7R)-2-{2-[1-(cyclopropylmethyl)-1H-pyrrol-2-yl]-7-methoxy-1-{[1-(2-methylpyrimidin-4-yl)azetidin-3-yl]methyl}-1H-1,3-benzodiazole-5-carbonyl}-2-azabicyclo[2.2.1]heptan-7-amine] was 552 nM.
The value for `COc1cc(C(=O)N2CC3CCC2[C@@H]3N)cc2nc(-c3cc4cccnc4n3CC3CC3)n(CC3CN(C(=O)C4CCC(F)(F)C4)C3)c12` (stereo partly drawn) [Example 430, (7R)-2-{2-[1-(cyclopropylmethyl)-1H-pyrrolo[2,3-b]pyridin-2-yl]-1-{[1-(3,3-difluorocyclopentanecarbonyl)azetidin-3-yl]methyl}-7-methoxy-1H-1,3-benzodiazole-5-carbonyl}-2-azabicyclo[2.2.1]heptan-7-amine] was 30 nM.
As for `COc1nccnc1N1CC(Cn2c(-c3cc4cccnc4n3CC3CC3)nc3cc(C(=O)N4C[C@H]5CC[C@@H]4[C@@H]5N)cc(OC)c32)C1` [Example 43, (1R,4R,7R)-2-{2-[1-(cyclopropylmethyl)-1H-pyrrolo[2,3-b]pyridin-2-yl]-7-methoxy-1-{[1-(3-methoxypyrazin-2-yl)azetidin-3-yl]methyl}-1H-1,3-benzodiazole-5-carbonyl}-2-azabicyclo[2.2.1]heptan-7-amine], the IC50 stood at 103 nM.
As to `Cc1cc(C(=O)N2CC3CCC2[C@@H]3N)cc2nc(-c3cc4ccccc4n3CC3CC3)n(CC3CN(C(=O)c4ccccc4)C3)c12` (stereo partly drawn) [Example 450, (7R)-2-{1-[(1-benzoylazetidin-3-yl)methyl]-2-[1-(cyclopropylmethyl)-1H-indol-2-yl]-7-methyl-1H-1,3-benzodiazole-5-carbonyl}-2-azabicyclo[2.2.1]heptan-7-amine], the IC50 was determined as 46 nM.
Then `COc1cc(C(=O)N2C[C@H]3CC[C@@H]2[C@@H]3N)cc2nc(-c3cc4cccnc4n3CC3CC3)n(CC3CN(c4cncc(C#N)n4)C3)c12` [Example 3, 6-(3-((5-((1R,4R,7R)-7-amino-2-azabicyclo[2.2.1]heptane-2-carbonyl)-2-(1-(cyclopropylmethyl)-1H-pyrrolo[2,3-b]pyridin-2-yl)-7-methoxy-1H-benzo[d]imidazol-1-yl)methyl)azetidin-1-yl)pyrazine-2-carbonitrile], with 55 nM; and `COc1cc(C(=O)N2CC3CCC2[C@@H]3N)cc2nc(-c3cc4ccccc4n3CC3CC3)n(CC3CCS(=O)(=O)C3)c12` (mixture of isomers) [Example 258, rac-((7R)-7-amino-2-azabicyclo[2.2.1]heptan-2-yl)(2-(1-(cyclopropylmethyl)-1H-indol-2-yl)-1-((1,1-dioxidotetrahydrothiophen-3-yl)methyl)-7-methoxy-1H-benzo[d]imidazol-5-yl)methanone], with 43 nM; and `COc1cc(C(=O)N2CC3CCC2[C@@H]3N)cc2nc(-c3cc4ccccc4n3CC3CC3)n(CC3CN(C(=O)c4ccncn4)C3)c12` (stereo partly drawn) [Example 437, (7R)-2-{2-[1-(cyclopropylmethyl)-1H-indol-2-yl]-7-methoxy-1-{[1-(pyrimidine-4-carbonyl)azetidin-3-yl]methyl}-1H-1,3-benzodiazole-5-carbonyl}-2-azabicyclo[2.2.1]heptan-7-amine], with 34 nM.
On to `COC(=O)NCCn1c(-c2cc3cccnc3n2CC2CC2)nc2cc(C(=O)N3C[C@H]4CC[C@@H]3[C@@H]4N)cc(OC)c21` [Example 284, methyl N-(2-{5-[(1R,4R,7R)-7-amino-2-azabicyclo[2.2.1]heptane-2-carbonyl]-2-[1-(cyclopropylmethyl)-1H-pyrrolo[2,3-b]pyridin-2-yl]-7-methoxy-1H-1,3-benzodiazol-1-yl}ethyl)carbamate], for which the IC50 was determined as 925 nM.
As to `COc1cc(C(=O)N2CC(Cn3c(-c4cc5cccnc5n4CC4CC4)nc4cc(C(=O)N5CC6CCC5[C@@H]6N)cc(OC)c43)C2)ccn1` (stereo partly drawn) [Example 441, (7R)-2-{2-[1-(cyclopropylmethyl)-1H-pyrrolo[2,3-b]pyridin-2-yl]-7-methoxy-1-{[1-(2-methoxypyridine-4-carbonyl)azetidin-3-yl]methyl}-1H-1,3-benzodiazole-5-carbonyl}-2-azabicyclo[2.2.1]heptan-7-amine], the IC50 worked out at 38 nM.
Then `COc1cc(C(=O)N2CC3CCC2[C@@H]3N)cc2nc(-c3csc4ccc(Cl)cc34)n(CC3CN(c4cncc(C#N)c4)C3)c12` (stereo partly shown) [Example 316], with 1150 nM; and `COc1cc(C(=O)N2CC3CCC2[C@@H]3N)cc2nc(-c3cc4cccnc4n3CC3CC3)n(Cc3cn(C)nc3C)c12` (stereo partly drawn) [Example 497, (7R)-2-{2-[1-(cyclopropylmethyl)-1H-pyrrolo[2,3-b]pyridin-2-yl]-1-[(1,3-dimethyl-1H-pyrazol-4-yl)methyl]-7-methoxy-1H-1,3-benzodiazole-5-carbonyl}-2-azabicyclo[2.2.1]heptan-7-amine], with 109 nM.

Broadly, the IC50 is the concentration that inhibits the measured activity by half.
